Results published in patent US10736841B2, “Bepotastine compositions” (BAUSCH & LOMB INCORPORATED, priority 2011, dated 2020).
Where two headings read alike, the source gives them in different places.

Tests used:
[1] = Drug substance description (solubility, hygroscopicity); assay type: physicochemical
Excerpt: Bepotastine besilate is a white to off-white, odorless, crystalline powder. The bepotastine drug substance physiological mode of action is inhibition of histamine H1 receptors to relieve typical symptoms associated with allergic rhinitis. […] Fluticasone propionate is a white to off-white, crystalline synthetic trifluorinated corticosteroid used to treat inflammatory symptoms related to asthma and allergic rhinitis.

[2] = Chemical stability studies at 25° C. and 40° C. in amber glass bottles; assay type: physicochemical
Method: Chemical stability studies were performed to determine if the formulation would likely achieve a commercially practical shelf-life. Studies were performed at 25° C. and 40° C. in moisture impermeable amber glass bottles.

[3] = cited from earlier work
microorganisms = experiment: USP 51 Preservative Efficacy Test (overall outcome); assay type: cell-based; details: BAK at a concentration of 0.200 mg/mL
Excerpt: The term “preservative efficacy” or “preservative effectiveness” or “antimicrobial efficacy”, as used herein, means that the composition satisfies USP standards as defined in protocol <51> p. 1681, United States Pharmacopeia, 1995: Antimicrobial effectiveness testing; The United States Pharmacopeia, 32nd rev ed., and the National Formulary, 27th ed. Rockville, Md.: USPC; 2009. For example, the preservative is effective in the product examined if (a) the concentrations of viable bacteria are reduced to not more than 0.1% of the initial concentrations by the fourteenth day; (b) the concentrations of viable yeasts and molds remain at or below the initial concentrations during the first 14 days; and (c) the concentration of each test microorganism remains at or below these designated levels during the remainder of the 28-day test period. Similar criteria are defined for BP standards (Efficacy of Antimicrobial Preservation, Appendix XVI C, 1995), and PhEur standards (Efficacy of Antimicrobial Preservation, Chapter VIII. 14, 1992).
The compositions provided herein may include an effective amount of an antimicrobial preservative. Preservatives can be used to inhibit microbial growth (e.g., bacterial or yeast) in the compositions. An “effective amount” of a preservative is that amount necessary to prevent the growth of microorganisms in the composition. […]

O=C(O)CCCN1CCC(O[C@@H](c2ccc(Cl)cc2)c2ccccn2)CC1.O=S(=O)(O)c1ccccc1 [Bepotastine besilate, (+)-(S)-4-[4-[(4-chlorophenyl)(2-pyridyl)methoxy]piperidino]butyric acid]
hygroscopicity ([1]; drug substance powder): non-hygroscopic | dissolution in the nasal spray formulation vehicle ([1]; nasal spray formulation vehicle): dissolves readily

O=C(O)CCCN1CCC(O[C@@H](c2ccc(Cl)cc2)c2ccccn2)CC1 [Bepotastine, (+)-(S)-4-[4-[(4-chlorophenyl)(2-pyridyl)methoxy]piperidino]butyric acid]
impurities found during stability evaluation [2]: only impurity found was the ethyl ester precursor of bepotastine

CCC(=O)O[C@]1(C(=O)SCF)[C@H](C)C[C@H]2[C@@H]3C[C@H](F)C4=CC(=O)C=C[C@]4(C)[C@@]3(F)[C@@H](O)C[C@@]21C [fluticasone propionate, Fluticasone propionate]
solubility in water [3]: practically insoluble | solubility in water ([3]; listed as fluticasone): insoluble

benzalkonium chloride [BAK]
effectiveness as preservative (microorganisms): effective preservative
